The conditions of series [1]: in vivo, cited from earlier work.
A short description of another series: clinical. As to conditions: human, in vivo. As for the experimental part: Each subject was dosed 4 times over 1 week with dosing occurring every other day. Doses of AV002 were administered at 0.5, 1.0, and 2.0 μg intranasally.
On Days 1, 3 and 5, subjects were dosed intranasally with escalating doses of AV002 nasal spray. On Day 7, 6 subjects were given a single SC bolus injection of desmopressin. Pharmacodynamic and pharmacokinetic metrics were evaluated at each dose level.
Plasma samples were analyzed using a validated radioimmunoassay assay (Celerion Switzerland AG) for desmopressin with a lower limit of quantification (LLOQ) of 2.5 pg/mL and upper limit of quantitation of 160 pg/mL. A 1.25 pg/mL calibration standard was included in the assay runs and concentrations between 1.25 and 2.5 pg/mL were reported out even though they were below the nominal LLOQ.
Pharmacokinetic variables were generally analyzed using model-independent methods. A single compartment model with first order absorption was used to qualitatively assess the impact of probable pharmacokinetic behavior of desmopressin when concentrations declined below the assay lower limit of quantification.
Pharmacokinetic calculations were performed using built in functions in the Excel 2003 component of Microsoft Office 2003 (Microsoft, Redmond, WA). The correctness of the calculation techniques was confirmed by comparison to output from WinNonlin 4.0.1 (Pharsight Corporation, Sunnyvale, CA). Summary statistics, graphs and figures were generated using built in functions and features of Excel 2003.
Pharmacokinetic samples were collected at pre-dose and 0.083, 0.167, 0.25, 0.50, 0.75, 1.05, 1.50, 2.05, 3.05, 4.05, and 6.05 h post dose each dosing day.

This is an account of results in publication PMC6488552, “Pharmacokinetic and Pharmacodynamic Properties of a Micro-Dose Nasal Spray Formulation of Desmopressin (AV002) in Healthy Water-Loaded Subjects” (Pharmaceutical Research, 2019).

Molecules are shown by their SMILES.

Broadly, the half-life is the time in which the quantity being followed falls by half. Read a high half-life as slow loss. As a reminder, the CL/F is clearance divided by bioavailability, as obtained after extravascular dosing. What is called AUC(0-inf) is the area under the concentration-time curve extrapolated to infinity. Lower therefore signals low exposure. A word on the Tmax: it is the time from dosing to the highest level. Regarding `NC(=O)CC[C@@H]1NC(=O)[C@H](Cc2ccccc2)NC(=O)[C@H](Cc2ccc(O)cc2)NC(=O)CCSSC[C@@H](C(=O)N2CCC[C@H]2C(=O)N[C@H](CCCN=C(N)N)C(=O)NCC(N)=O)NC(=O)[C@H](CC(N)=O)NC1=O` [Desmopressin, desmopressin], the intranasal bioavailability in series [1] (human) is on record as 3.4%. Besides, the “relative bioavailability of intranasal administration, of SC injection” value in series [1] is given as “approximately 2%”. Moreover, in the series “clinical”, the half-life was 90 min. Further, the “mean Tmax” value in “clinical” (sc) worked out at 53 min. The compound further gave a CL/F in “clinical” (sc, 0.12 ug) of 227 mL/min. For the same compound, in the series “clinical” (sc, 0.12 ug, SD), the AUC(0-inf) amounted to 0.0102 ± 0.0049 ng·h/mL and the time of peak concentration (Tmax) amounted to 53 ± 20.9 min.
